Measurements as given in US10385069B2, “Imidazo[2,1-B]thiazole and 5,6-dihydroimidazo[2,1-B]thiazole derivatives useful as S100-inhibitors” (Active Biotech AB, priority 2015, dated 2019).

target: T1, interaction between biotinylated human S100A9 and human RAGE-Fc (Homo sapiens, UniProt P06702); experiment: AlphaScreen inhibition assay, biot-hS100A9:hRAGE-Fc; assay type: binding; conditions: biot-hS100A9 pre-incubated with compound 1 h, assay buffer with CaCl2 and ZnCl2
T1 construct: made in house; host or cells: E. coli
T1 sequence (P06702 1-114): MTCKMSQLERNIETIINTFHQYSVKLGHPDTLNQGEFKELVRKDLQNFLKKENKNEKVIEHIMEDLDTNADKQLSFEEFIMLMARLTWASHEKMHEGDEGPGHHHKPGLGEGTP
Description: Inhibition Assay, Biot-hS100A9:hRAGE-Fc
The AlphaScreen (Amplified Luminescent Proximity Homogeneous Assay) contains two types of beads, Alpha Donor beads and Acceptor beads (PerkinElmer). Upon laser excitation at 680 nm a photosensitizer in the Donor bead converts ambient oxygen to a more excited singlet state. The singlet oxygen molecule diffuses (maximum 200 nm) to react with a thioxene derivative in the Acceptor bead and generates a chemiluminescence reaction. Fluorophores in the Acceptor bead subsequently emit light at 520-620 nm which can be detected in the EnVision® Multilabel plate Reader (PerkinElmer). The beads are light sensitive and all work with the beads is performed under subdued light conditions or using green filters on light sources (Roscolux Chroma Green #389, Rosco).
In the AlphaScreen Inhibition Assay described here, protein A (Staphylococcus aureus) conjugated Acceptor beads are used together with streptavidin coated Donor beads (Perkin Elmer 6760617M). The Acceptor beads are pre-incubated with Fc-tagged recombinant human RAGE (rhRAGE-Fc) allowing binding of the rhRAGE-Fc to protein A on the beads. Biotinylated human S100A9 (biot-hS100A9) is pre-incubated with the low molecular test compounds. The pre-mixes are then added to the wells of a micro-plate and incubated allowing interaction between biot-hS100A9 and rhRAGE-Fc. Subsequent addition of streptavidin coated Donor beads causes binding of the streptavidin to the biotinylated hS100A9. After an additional incubation the signal is measured.
Without inhibitory compounds, the interaction of biot-hS100A9 to rhRAGE-Fc will bring the Acceptor and Donor beads in close proximity thus generating a high signal. With an inhibitor present the complex will not form resulting in a decreased signal. The assay is illustrated in FIG. 1.
Chemicals and Reagents. • AlphaScreen® General IgG (Protein A) Detection Kit, (PerkinElmer 6760617M) • HBS-P buffer (GE Healthcare, BR-1003-68) • HBS-N buffer (GE Healthcare, BR-1003-69) • CaCl2 in HBS-P • ZnCl2 in Milli-Q water • DMSO • Biotinylated hS100A9, (biotinylated via cystein by EZ-link Iodoacetyl-PEG2-Biotin reagent (Pierce no. 21334), in HBS-N • rhRAGE-Fc (R&D Systems, 1145-RG-50), in HBS-P
The AlphaScreen assay method is used for screening of the inhibitory effect of different compound samples at fixed concentrations or for IC50 determination by varying the compound concentrations. Samples of test compounds and references are prepared from solutions in DMSO. Relevant reference inhibitors and DMSO are used as controls for defined inhibition and non-inhibition, respectively in the assay. The percent inhibition in assay for test compounds and references are calculated by comparing their obtained assay signals with the signal values for the control with only DMSO (no compound).
Assay concentration of biotinylated hS100A9 and rhRAGE-Fc are batch dependent, and are determined and defined by separate cross-titration experiments using this AlphaScreen inhibition method to verify the optimal setup regarding signal strength and achievement of a defined inhibition with relevant reference compounds. The Final assay concentrations of Acceptor and Donor beads are 20 μg/mL.
Assay buffer is prepared by adding CaCl2 and ZnCl2 to HBS-P and is used freshly prepared in the experiment.
Biotin-hS100A9 solution for the experiment is prepared by dilution of appropriate amount of stock solution biot-hS100A9 in assay buffer (with CaCl2 and ZnCl2) and incubation in room temperature for 30 minutes.
rhRAGE-Fc solution for the experiment is prepared by dilution appropriate amount of rhRAGE-Fc stock in assay buffer.
Protein A Acceptor beads are diluted in assay buffer and are added to an equal volume of the prepared diluted rhRAGE-Fc solution. The beads are light sensitive. The vial is covered with aluminum foil and incubated at room temperature in the dark until biot-hS100A9+compound incubation is finished (see below). […]

SMILES	IC50 [µM]
O=C(O)C1CN2C(=N1)Sc1c2cc(OCCN2CCOCC2)c(Cl)c1Cl (stereo not drawn) [Example 285, 9,10-Dichloro-11-[2-(morpholin-4-yl)ethoxy]-7-thia-2,5-diazatricyclo[6.4.0.0^2,6]dodeca-1(8),5,9,11-tetraene-4-carboxylic acid]	1.27
CC(C)(C)C1CCc2c(sc3nc(C(=O)O)c(CN4CCOCC4)n23)C1 (stereo not drawn) [Example 242, 10-tert-Butyl-3-(morpholin-4-ylmethyl)-7-thia-2,5-diazatricyclo[6.4.0.0^2,6]dodeca-1(8),3,5-triene-4-carboxylic acid]	1.39
O=C(O)c1cn2c(n1)sc1ccc(Cl)cc12 [Example 12, 11-Chloro-7-thia-2,5-diazatricyclo[6.4.0.0^2,6]dodeca-1(8),3,5,9,11-pentaene-4-carboxylic acid]	5.61
O=C(O)c1cn2c(n1)sc1cc(OC(F)(F)F)ccc12 [Example 4, 10-(Trifluoromethoxy)-7-thia-2,5-diazatricyclo[6.4.0.0^2,6]dodeca-1(8),3,5,9,11-pentaene-4-carboxylic acid]	1.16
O=C(O)c1cn2c(n1)sc1cc(Cl)ccc12 [Example 8, 10-Chloro-7-thia-2,5-diazatricyclo[6.4.0.0^2,6]dodeca-1(8),3,5,9,11-pentaene-4-carboxylic acid]	2.7
O=C(O)c1cn2c(n1)sc1cc(C(F)(F)F)ccc12 [Example 14, 10-(Trifluoromethyl)-7-thia-2,5-diazatricyclo[6.4.0.0^2,6]dodeca-1(8),3,5,9,11-pentaene-4-carboxylic acid]	2.14
O=C(O)c1cn2c(n1)sc1cc(SC(F)(F)F)ccc12 [Example 201, 10-[(Trifluoromethyl)sulfanyl]-7-thia-2,5-diazatricyclo[6.4.0.0^2,6]dodeca-1(8),3,5,9,11-pentaene-4-carboxylic acid]	1.47
CC1(C)CCCc2c1sc1nc(C(=O)O)cn21 [Example 43, 9,9-Dimethyl-7-thia-2,5-diazatricyclo[6.4.0.0^2,6]dodeca-1(8),3,5-triene-4-carboxylic acid]	1.24
CC(C)(C)C1CCc2c(sc3nc(C(=O)O)c(NCc4ccccc4)n23)C1 (stereo not drawn) [Example 42, 3-(Benzylamino)-10-tert-butyl-7-thia-2,5-diazatricyclo[6.4.0.0^2,6]dodeca-1(8),3,5-triene-4-carboxylic acid]	1.04
O=C(O)c1cn2c3c(sc2n1)C(O)CCC3 (stereo not drawn) [Example 39, 9-Hydroxy-7-thia-2,5-diazatricyclo[6.4.0.0^2,6]dodeca-1(8),3,5-triene-4-carboxylic acid]	2.98
CC1(C)Cc2c(sc3nc(C(=O)O)c(C4CN(C(=O)OC(C)(C)C)C4)n23)C(C)(C)C1 [Example 225, 3-{1-[(tert-Butoxy)carbonyl]azetidin-3-yl}-9,9,11,11-tetramethyl-7-thia-2,5-diazatricyclo[6.4.0.0^2,6]dodeca-1(8),3,5-triene-4-carboxylic acid]	0.31
O=C(O)c1cn2c(n1)sc1cc(OCc3ccccc3)ccc12 [Example 208, 10-(Benzyloxy)-7-thia-2,5-diazatricyclo[6.4.0.0^2,6]dodeca-1(8),3,5,9,11-pentaene-4-carboxylic acid]	2.26
O=C(O)C1(CO)CN2C(=N1)Sc1c2ccc(F)c1Cl (stereo not drawn) [Example 263, 9-Chloro-10-fluoro-4-(hydroxymethyl)-7-thia-2,5-diazatricyclo[6.4.0.0^2,6]dodeca-1(8),5,9,11-tetraene-4-carboxylic acid]	1.06

Continued by falling IC50, values first:

IC50 [µM]	SMILES
1.01	CC1CCCc2c1sc1nc(C(=O)NS(C)(=O)=O)cn21 (single isomer, unassigned) [Example 49, N-Methanesulfonyl-9-methyl-7-thia-2,5-diazatricyclo[6.4.0.0^2,6]dodeca-1(8),3,5-triene-4-carboxamide]
0.98	O=C(O)c1cn2c(n1)sc1cc(Cl)c(OC(F)(F)F)cc12 [Example 230, 10-Chloro-11-(trifluoromethoxy)-7-thia-2,5-diazatricyclo[6.4.0.0^2,6]dodeca-1(8),3,5,9,11-pentaene-4-carboxylic acid]
0.74	CC1(C)CCc2sc3nc(C(=O)NS(=O)(=O)CC(F)(F)F)cn3c2C1 [Example 57, 11,11-Dimethyl-N-(2,2,2-trifluoroethanesulfonyl)-7-thia-2,5-diazatricyclo[6.4.0.0^2,6]dodeca-1(8),3,5-triene-4-carboxamide]
0.7	CC(=O)N1CCN(c2c(C(=O)O)nc3sc4c(n23)CC(C)(C)CC4(C)C)CC1 [Example 284, 3-(4-Acetylpiperazin-1-yl)-9,9,11,11-tetramethyl-7-thia-2,5-diazatricyclo[6.4.0.0^2,6]dodeca-1(8),3,5-triene-4-carboxylic acid]
0.55	O=C(O)c1cn2c(n1)sc1c(Cl)c(Cl)c(OCCN3CCOCC3)cc12 [Example 261, 9,10-Dichloro-11-[2-(morpholin-4-yl)ethoxy]-7-thia-2,5-diazatricyclo[6.4.0.0^2,6]dodeca-1(8),3,5,9,11-pentaene-4-carboxylic acid]
0.43	O=C(O)C1CN2C(=N1)Sc1c2ccc(Br)c1Cl (stereo not drawn) [Example 240, 10-Bromo-9-chloro-7-thia-2,5-diazatricyclo[6.4.0.0^2,6]dodeca-1(8),5,9,11-tetraene-4-carboxylic acid]
0.43	CC1(C)Cc2c(sc3nc(C(=O)O)c(N4CCOCC4)n23)C(C)(C)C1 [Example 233, 9,9,11,11-Tetramethyl-3-(morpholin-4-yl)-7-thia-2,5-diazatricyclo[6.4.0.0^2,6]dodeca-1(8),3,5-triene-4-carboxylic acid]
0.35	O=C(O)c1cn2c(n1)sc1c(F)c(Cl)ccc12 [Example 3, 10-Chloro-9-fluoro-7-thia-2,5-diazatricyclo[6.4.0.0^2,6]dodeca-1(8),3,5,9,11-pentaene-4-carboxylic acid]
0.34	CC(C)(C)C1CCc2c(sc3nc(C(=O)NS(C)(=O)=O)cn23)C1 (stereo not drawn) [Example 47, 10-tert-Butyl-N-methanesulfonyl-7-thia-2,5-diazatricyclo[6.4.0.0^2,6]dodeca-1(8),3,5-triene-4-carboxamide]
0.32	CC1(C)Cc2c(sc3nc(C(=O)O)cn23)C(C)(C)C1 [Example 32, 9,9,11,11-Tetramethyl-7-thia-2,5-diazatricyclo[6.4.0.0^2,6]dodeca-1(8),3,5-triene-4-carboxylic acid]
0.27	Cc1c(C(=O)O)nc2sc3c(n12)CC(C)(C)CC3(C)C [Example 245, 3,9,9,11,11-Pentamethyl-7-thia-2,5-diazatricyclo[6.4.0.0^2,6]dodeca-1(8),3,5-triene-4-carboxylic acid]
0.17	O=C(NS(=O)(=O)c1ccccc1)C1CN2C(=N1)Sc1c2ccc(F)c1Cl (stereo not drawn) [Example 278, N-(Benzenesulfonyl)-9-chloro-10-fluoro-7-thia-2,5-diazatricyclo[6.4.0.0^2,6]dodeca-1(8),5,9,11-tetraene-4-carboxamide]
0.13	O=C(O)c1cn2c(n1)sc1c(Cl)c(Cl)ccc12 [Example 1, 9,10-Dichloro-7-thia-2,5-diazatricyclo[6.4.0.0^2,6]dodeca-1(8),3,5,9,11-pentaene-4-carboxylic acid]
0.1	O=C(O)c1nc2sc3c(Cl)c(F)ccc3n2c1C1CC1 [Example 291, 9-Chloro-3-cyclopropyl-10-fluoro-7-thia-2,5-diazatricyclo[6.4.0.0^2,6]dodeca-1(8),3,5,9,11-pentaene-4-carboxylic acid]
